Tested on: HeLa cells
Experiment: Inhibition of cellular proliferation, SRB assay, HeLa cells
Type: cell-based
Conditions: HeLa cells, SRB assay; C22-C23 epoxide of the taccalonolide in the same line; read-out: Corresponding Epoxide IC50
Procedure: The ability of the compounds to initiate cytotoxicity was also determined. […] The determination of IC50 values was performed on taccalonolide material after NMR analysis and subsequent lyophilization. Ethanol or DMSO was used as the vehicle for all cellular studies.
The antiproliferative potencies of the taccalonolides were evaluated in HeLa cells using the SRB assay.

In the case of `CC(=O)O[C@H]1C[C@H]2[C@H]([C@@H]3[C@@H](O)[C@@H]4[C@H]([C@H](C)[C@@H]5O[C@@]56OC(=O)[C@@](C)(O)[C@]46C)[C@]31C)[C@@H](O)C(=O)[C@H]1C[C@@H]3O[C@@H]3[C@H](OC(C)=O)[C@@]12C` [N-epo], the IC50 is reported as 11 nM.

Same assay, conditions: HeLa cells, SRB assay; parent taccalonolide; read-out: IC50

Compared with “5α-hydroxy-taccalonolide A [Taccalonolide Z]”, `CC(=O)O[C@@H]1[C@H]2[C@@H]3C(=O)C(O)=C4C[C@@H]5O[C@@H]5[C@H](OC(C)=O)[C@]4(C)[C@H]3[C@H](OC(C)=O)[C@H](OC(C)=O)[C@]2(C)[C@@H]2[C@@H]1[C@]1(C)C(=C[C@H]2C)OC(=O)[C@@]1(C)O` [Taccalonolide AD] is 29-fold higher in IC50: 120 nM for the first, 3480 nM for the second.

First: CC(=O)O[C@@H]1[C@H]2[C@H]3[C@H]([C@H](OC(C)=O)[C@H](OC(C)=O)[C@]2(C)[C@@H]2[C@@H]1[C@]1(C)C(=C[C@H]2C)OC(=O)[C@@]1(C)O)[C@]1(C)[C@H](C[C@@H]2O[C@@H]2[C@@H]1OC(C)=O)C(=O)C3(O)O [Taccalonolide AE]
Second: CC(=O)O[C@H]1C[C@H]2[C@H]([C@@H]3[C@H]4OC(=O)[C@@](C)(O)[C@@]5(C)C(=O)C[C@@H](C)[C@@H]([C@@H]45)[C@]31C)[C@@H](O)C(=O)[C@H]1C[C@@H]3O[C@@H]3[C@H](OC(C)=O)[C@@]12C [Taccalonolide AK]
The IC50 of the first is lower: 5010 nM for the first, over 30000 nM for the second. The first is the more potent here.

`CC(=O)O[C@H]1C[C@H]2[C@H]([C@@H]3[C@@H](O)[C@@H]4[C@H]([C@H](C)C=C5OC(=O)[C@@](C)(O)[C@@]54C)[C@]31C)[C@@H](O)C(=O)[C@@]1(O)C[C@@H]3O[C@@H]3[C@H](OC(=O)CC(C)C)[C@]21C` [Taccalonolide AM] and `CC(=O)O[C@H]1C[C@H]2[C@H]([C@@H]3[C@@H](O)[C@@H]4[C@H]([C@H](C)C=C5OC(=O)[C@@](C)(O)[C@@]54C)[C@]31C)[C@@H](O)C(=O)[C@H]1C[C@@H]3O[C@@H]3[C@H](O)[C@@]12C` [Taccalonolide AN] are within 1.5-fold of each other in IC50: 1200 nM for the first, 1000 nM for the second.

Compound `CC(=O)O[C@H]1[C@H]2[C@H]([C@@H]3[C@H]4OC(=O)[C@@](C)(O)[C@@]5(C)C(=O)C[C@@H](C)[C@@H]([C@@H]45)[C@@]3(C)[C@H]1OC(C)=O)[C@@H](O)C(=O)[C@H]1C[C@@H]3O[C@@H]3[C@H](OC(C)=O)[C@]21C` [Taccalonolide AO] has an IC50 of over 30000 nM.

Same assay, conditions: HeLa cells, up to 30,000 nM

With `CC(=O)O[C@H]1C[C@H]2[C@H]([C@@H]3[C@H]4OC(=O)[C@@](C)(O)[C@@]5(C)C(=O)C[C@@H](C)[C@@H]([C@@H]45)[C@]31C)[C@@H](O)C(=O)[C@H]1C[C@@H]3O[C@@H]3[C@H](OC(C)=O)[C@@]12C` [Taccalonolide AK] the “activity at concentrations as high as 30,000 nM” value was “no activity”.
With `CC(=O)O[C@H]1[C@H]2[C@H]([C@@H]3[C@H]4OC(=O)[C@@](C)(O)[C@@]5(C)C(=O)C[C@@H](C)[C@@H]([C@@H]45)[C@@]3(C)[C@H]1OC(C)=O)[C@@H](O)C(=O)[C@H]1C[C@@H]3O[C@@H]3[C@H](OC(C)=O)[C@]21C` [Taccalonolide AO] the “activity at concentrations as high as 30,000 nM” value was “no activity”.

Same assay, conditions: HeLa cells, up to 50,000 nM

With `CC(=O)O[C@@H]1[C@H]2[C@H]3C([C@H](OC(C)=O)[C@H](OC(C)=O)[C@]2(C)[C@@H]2[C@@H]1[C@]1(C)C(=C[C@@]2(C)OO)OC(=O)[C@@]1(C)O)[C@]1(C)[C@H](C[C@@H]2O[C@@H]2[C@@H]1OC(C)=O)C(=O)[C@@H]3O` (stereo partly drawn) [Taccalonolide AC] the “activity at concentrations as high as 50,000 nM” value was “no activity”.

Same assay, conditions: Homo sapiens, HeLa, HeLa cells, SRB assay; parent taccalonolide; read-out: IC50

Going from `CC(=O)O[C@@H]1[C@H]2[C@H]3[C@H]([C@H](OC(C)=O)[C@H](OC(C)=O)[C@]2(C)[C@@H]2[C@@H]1[C@]1(C)C(=C[C@H]2C)OC(=O)[C@@]1(C)O)[C@]1(C)[C@H](C[C@@H]2O[C@@H]2[C@@H]1OC(C)=O)C(=O)[C@@H]3O` [Taccalonolide A, reference compound] to `CC(=O)O[C@H]1[C@H]2[C@H]([C@@H]3[C@@H](O)[C@@H]4[C@H]([C@H](C)C=C5OC(=O)[C@@](C)(O)[C@@]54C)[C@@]3(C)[C@H]1OC(C)=O)[C@@H](O)C(=O)[C@H]1C[C@@H]3O[C@@H]3[C@H](OC(C)=O)[C@]21C` [Taccalonolide B, reference compound], the IC50 falls from 5380 nM to 3120 nM (1.7-fold). The second is the more potent here.

Going from `CC(=O)O[C@@H]1[C@H]2[C@H]3[C@H]([C@H](OC(C)=O)[C@H](OC(C)=O)[C@]2(C)[C@@H]2[C@@H]1[C@]1(C)C(=C[C@H]2C)OC(=O)[C@@]1(C)O)[C@@]1(C)[C@@H](OC(C)=O)[C@H]2O[C@H]2C[C@]1(O)C(=O)[C@@H]3OC(C)=O` [Taccalonolide AA] to `CC(=O)O[C@H]1[C@H]2[C@H]([C@@H]3[C@@H](O)[C@@H]4[C@H]([C@H](C)C=C5OC(=O)[C@@](C)(O)[C@@]54C)[C@@]3(C)[C@H]1OC(C)=O)[C@@H](O)C(=O)[C@@]1(O)C[C@@H]3O[C@@H]3[C@H](OC(C)=O)[C@]21C` [Taccalonolide AB], the IC50 rises from 32.3 nM to 2770 nM (86-fold).

— US20200071351A1, “TACCALONOLIDE MICROTUBULE STABILIZERS” (THE BOARD OF REGENTS OF THE UNIVERSITY OF TEXAS SYSTEM, priority 2016, published 2020)
